Measured values taken from US6486162B2, “2-{3-[4-(2-t-butyl-6-trifluoromethyl-4-pyrimidinyl)-1- piperazinyl] propylthio}-4-pyrimidinol fumarate” (Abbott Laboratories, priority 1997, dated 2002).
Blank lines part the entries; values can stand above or below the compound they belong to.

Legend:
Type in all cases: physicochemical
[1] = solubility tests of the substances
From the text: It has a selectivity, Ki D2/Ki D3of 120 (cf. WO 96/02519). The compound is therefore useful for treating disorders which respond to dopamine D3ligands, eg. for treating disorders of the central nervous system, in particular schizophrenia, depressions, neuroses and psychoses. It is additionally useful for treating sleep disturbances and nausea and as antihistamine.
(§1) Furthermore, the fumarate is more soluble in polar solvents such as C1-C6-alkanols than the free base. Because of the altered solubility characteristics, it can also be purified more simply while avoiding physiologically unacceptable solvents.

[2] = stability against oxidative processes; conditions: compared to the free base
From the text: as §1

[3] = evaluation of various acid addition salts
From the text: Evaluation of various acid addition salts of 2-{3-[4-(2-t-butyl-6-trifluoromethyl-4-pyrimidyl)-1-piperazinyl)propylthio}-4-5 pyrimidinol

solubility in water ([1]; compared to that of the free base): substantially higher solubility
solubility in polar solvents such as C1-C6-alkanols ([1]; compared to the free base): more soluble
stability against oxidative processes [2]: higher stability
Observation: hygroscopicity [3]: non-hygroscopic salt with definite
Compound: CC(C)(C)c1nc(N2CCN(CCCSc3nccc(O)n3)CC2)cc(C(F)(F)F)n1.O=C(O)/C=C/C(=O)O [Fumarate, fumaric acid salt of 2-{3-[4-(2-t-butyl-6-trifluoromethyl-4-pyrimidinyl)-1-piperazinyl]propylthio}-4-pyrimidinol]

Compound: Hydrochloride
Observation: stability of the compound in the acidic medium ([3]; aqueous solution of the salt is highly acidic): acidic; the compound is instable in

Compound: Methane sulfonate
Observation: crystals are deliquescent and dissolve within [3]: deliquescent and dissolve within 3 h
